SMILES strings stand for the structures.

For this experiment, the system named is vascular smooth muscles (thoracic aorta). Description: Calcium antagonistic action in vascular smooth muscles (spiral piece of thoracic aorta, Ca2+ dose-reaction curve in presence of KCl). Format: cell-based, Male Wistar rats. The following applies: isolated rat aorta spiral piece, 37° C.; KCl 5×10^-2 M; CaCl2 10^-4 to 3×10^-2 M; test compound 3×10^-7 to 10^-5 M; Van Rossum method; 5 samples. The protocol: Male Wistar rats weighing about 250 g were anesthetized with ether, hit hard in the occipital region, and the both common carotid arteries were cut to let blood, and the thoracic aorta was removed. Fat tissues depositing on the extracted blood vessel were removed, and a spiral piece of 2 mm×50 mm was prepared.
This spiral piece of aort was kept at 37° C., and was suspended in an organ bath containing Ca^2+ --free Krebs--Henseleit solution ventilated with mixed gas of 95% O2 and 5% CO2 and its contraction reaction was measured in the following method by way of an isotonic transducer.
In the first place, to the spiral piece deprived of Ca^2+, CaCl2 solution of 10^-4 to 3×10^-2 M was comulatively added in the presence of KCl of 5×10^-2 M, and the dose-reaction curve by Ca^2+ was determined, and after removing Ca^2+ again, the dose-reaction curve by Ca^2+ was determined in the presence of the test compound, and from the difference of these reactions, the pA2 value of Ca^2+ antagonistic action of the test compound was calculated. The concentration of the test compound was 3×10^-7 to 10^-5 M. (The pA2 value was calculated according to the method proposed by Van Rossum, J. M., in Arch. Int. Pharmarcodyn., 143, 299-330, 1963).
As for `CCOP(=O)(Cc1ccc(C(=O)Nc2ccccc2O)cc1)OCC` [Example 13], the “pA2 value of Ca^2+ antagonistic action” value is given as 6.52 ± 0.10.
`CCOP(=O)(Cc1ccc(C(=O)N(Cc2ccccc2)c2ccccc2)cc1)OCC` [Example 45, 4-diethoxyphosphinylmethyl-N-benzyl-N-phenylbenzamide]: the “pA2 value of Ca^2+ antagonistic action” value is recorded as 6.75 ± 0.08.
With `CCOP(=O)(Cc1ccc(C(=O)N(Cc2ccc([N+](=O)[O-])cc2)c2ccccc2)cc1)OCC` [Example 46], the “pA2 value of Ca^2+ antagonistic action” value is reported as 6.07 ± 0.12.
The same measure for `CCOP(=O)(Cc1ccc(C(=O)N(Cc2ccccc2)c2ccc(OC)cc2)cc1)OCC` [Example 56, 4-diethoxyphosphinylmethyl-N-benzyl-N-(4-methoxyphenyl)benzamide]: 6.99 ± 0.11; for `CCOP(=O)(Cc1cccc(C(=O)N(Cc2ccc(C(=O)OC)cc2)c2ccccc2)c1)OCC` [Example 74]: 6.50 ± 0.09.

For the origin of these results see patent US4822780A, “Carboxamide compounds” (Otsuka Pharmaceutical Factory, Inc., priority 1987, dated 1989).
